# Measurements taken from US20120302609A1, “Pyrazolines for the Modulation of PKM2” (Dynamix Pharmaceuticals LTD., priority 2011, published 2012).
# What was measured:
# [1] = system: H1299 (Non-small cell lung carcinoma cell line); test: Cell proliferation index assay, Assay Protocol II (Fluofarma, flow cytometry); format: cell-based; conditions: Homo sapiens, NCI-H1299
# Procedure: In a second assay to determine the inhibition of cell proliferation by a test compound, cell proliferation of the cell line of interest was measured by a cell proliferation index assay using Fluofarma (www.fluofarma.com) based technology. This assay is based on the dilution rate of a fluorescent membrane marker, which is a direct function of the number of cell divisions. Briefly, the assay is performed by loading the cells with a non-toxic fluorescent phospholipid analog before the seeding. […] Flow cytometry analysis of the fluorescent probe is performed after the loading of the cells both prior to, as well as after treatment with various concentrations of the test compound. The dilution rate of the fluorescent probe at the single cell level is directly correlated to the number of cell divisions.
# PKM2, human recombinant = target: T1, PKM2, human recombinant (Homo sapiens, UniProt P14618); test: PKM2 enzymatic activity assay (Kinase-Glo Plus luminescence); format: biochemical;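 as to Max activity Group: percent increase over no-compound signal after subtracting the no-PKM2 background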
# T1 construct: purchased BPS 50295
# Procedure: PKM2 performs the following enzymatic reaction, where the PKM2 substrates, PEP (phosphoenolpyruvate) and ADP, are converted to pyruvate and ATP as follows:
# All of the enzymatic reactions were conducted in duplicates at room temperature for 1 hour in a 50 μL mixture containing: • PKM2 assay buffer (50 mM Imidazole, pH 7.2; 7 mM MgCl2; 50 mM KCl; 0.01% Tween; • and 0.05% BSA), 0.1 mM ADP, 0.5 mM PEP, 0.1 nM PKM2 enzyme (PKM2, human recombinant (BPS catalog number 50295)) and the indicated test compound. Fructose 1,6 biphosphat e, (FBP (Sigma)) was used as a positive control for activation at concentration of 0.5 mM. After enzymatic reactions, 50 μL of Kinase-Glo® Plus reagent (Promega kit) was added to each well and luminescence was measured using a BioTek Synergy™ 2 microplate reader.
# PKM2 activity assays were performed in duplicates at each concentration. The luminescence data were analyzed using the computer software, GraphPad PRISM®. In the absence of the compound, the luminescence was defined as 0% activity. The percent activity in the presence of each compound was calculated according to the following equation:
# % Activity=[(L−Lb)/(Lt−Lb)−1]×100%
# where L=the luminescence in the presence of the test compound, Lb=the luminescence in the absence of PKM2, and Lt=the luminescence intensity in the absence of the test compound. The % activity values versus a series of compound concentrations were plotted using non-linear regression analysis of Sigmoidal dose-response curve generated with the equation Y=B+(T−B)/1+10^((LogEC50-X)×Hill Slope), where Y=percent activity, B=minimum percent activity, T=maximum percent activity, X=logarithm of compound and Hill Slope=slope factor or Hill coefficient. The AC50 values, shown in Table 2 were determined for the indicated test compounds as the concentration causing a half-maximal percent activity.
# [2] = H1299 nude mouse xenograft study, toxicity (body weight, deaths, organ weights); format: in vivo, mice; conditions: Gemcitabine 120 mg/kg ip q3d × 4
# Procedure: (§1) The animals were fed ad libitum water (reverse osmosis, 1 ppm Cl) and NIH 31 Modified and Irradiated Lab Diet® consisting of 18.0% crude protein, 5.0% crude fat, and 5.0% crude fiber. The mice were housed on irradiated Enrich-o′ Cobs™ Laboratory Animal Bedding in static microisolators on a 12-hour light cycle at 20-22° C. (68-72° F.) and 40-60% humidity.
# (§2) Dosing began on D1 in four groups of mice (n=12/group in Groups 1, 3, and 4; n=6 in Group 2). XT26 and its vehicle were administered intraperitoneally (i.p.) twice daily for 28 days (b.i.d.×28), starting with the p.m. dose on D1 and ending with the a.m. dose on D29. Gemcitabine was administered i.p. once daily at three-day intervals for four doses (q3d×4). In all groups, the dosing volume of 10 ml/kg (0.2 ml/20 g mouse) was scaled to the weight of each individual animal, as measured twice weekly.
# Group 1 mice received the XT26 vehicle b.i.d.×28, and served as the controls for the study. Group 2 received gemcitabine at 120 mg/kg. Group 3 was to receive XT26 at 100 mg/kg b.i.d.×28; on D21, four mice (Animals 1, 3, 4, and 5) erroneously received 200 mg/kg XT26 for their a.m. dose. Group 4 was to receive XT26 at 200 mg/kg b.i.d.×28, but dosing stopped on D9 (b.i.d.×8) because of toxicity. Group 4 dosing at 200 mg/kg resumed on D17 on a qd (once daily)×13 dosing schedule. Because of a scheduling error, the D19 dose for Group 4 mice was omitted; qd dosing occurred on Days 17, 18, and 20-28.
# Animals were weighed daily on D1-5, then twice weekly until the completion of the study. The mice were observed frequently for overt signs of any adverse, treatment-related side effects.
# On D10, both kidneys and the liver were harvested from each euthanized Group 4 animal. Each organ was weighed separately, fixed overnight in 10% neutral buffered formalin, and transferred to 70% ethanol.
# [3] = system: H1299 Human Non-Small Cell Lung Carcinoma; test: H1299 human non-small cell lung carcinoma nude mouse xenograft model, tumor growth delay; format: in vivo, mice; conditions: for MTV (n) Day 28: median tumor volume of animals not at endpoint (n in brackets)
# Procedure: as §1
# H1299 (NCI-H1299) NSCLC cells were obtained from the American Type Culture Collection, which reports the cell line to have originated from a lymph node metastasis and to lack p53 expression. The cell line was maintained as exponentially growing cultures in RPMI-1640 medium supplemented with 10% fetal bovine serum, 2 mM glutamine, 100 units/mL penicillin G sodium, 100 μg/mL streptomycin sulfate, 25 μg/mL gentamicin, 10 mM HEPES, and 0.075% sodium bicarbonate. The tumor cells were cultured in tissue culture flasks in a humidified incubator at 37° C., in an atmosphere of 5% CO2 and 95% air.
# H1299 tumor cells were harvested during log phase growth and suspended in cold PBS. Each nude mouse was inoculated subcutaneously in the right flank with 0.2 mL of the cell suspension (1×10^7 cells). The tumors were periodically calipered in two dimensions to monitor size as the mean volume approached the desired 90-130 mm^3 range. Tumor size was calculated by the following formula:
# where w=width and l=length, in mm, of the tumor. Tumor weight may be estimated with the assumption that 1 mg is equivalent to 1 mm^3 of tumor volume.
# Compound 13A (MW 467.51, code-named XT26) was provided as a powder stored at −20° C., and protected from light during storage and handling. Dosing suspensions, in 0.5% carboxymethyl cellulose and 1% Tween® 80 in deionized water (Vehicle), were prepared fresh for each dose, and kept at 4° C. post formulation. Gemcitabine (Gemzar®, Lilly, 38 mg/mL, Lot # A866884A) was stored at room temperature. A fresh 12 mg/mL gemcitabine dosing solution was prepared on each treatment day by diluting an aliquot of the stock solution with saline.
# as §2
# Group 1 mice received the XT26 vehicle b.i.d.×28, and served as the controls for the study. Group 2 received gemcitabine at 120 mg/kg. Group 3 was to receive XT26 at 100 mg/kg b.i.d.×28; on D21, four mice (Animals 1, 3, 4, and 5) erroneously received 200 mg/kg XT26 for their a.m. dose. […] Group 4 dosing at 200 mg/kg resumed on D17 on a qd (once daily)×13 dosing schedule. Because of a scheduling error, the D19 dose for Group 4 mice was omitted; qd dosing occurred on Days 17, 18, and 20-28.
# Tumors were calipered twice weekly for the duration of the study, and each animal was euthanized when its neoplasm reached the predetermined endpoint volume (1200 mm^3) or at the end of the study, whichever came first. Animals that exited the study for tumor growth were documented as euthanized for tumor progression (TP), with the date of euthanasia. The time to endpoint (TTE) for each mouse was calculated by the following equation: […]
# where TTE is expressed in days, endpoint volume is expressed in mm^3, b is the intercept, and m is the slope of the line obtained by linear regression of a log-transformed tumor growth data set.
# [4] = Gemcitabine 120 mg/kg ip q3d × 4
# [5] = Group 1 vs 2: Gemcitabine ip q3d × 4, 120 mg/kg
# T1 sequence (P14618 whole entry): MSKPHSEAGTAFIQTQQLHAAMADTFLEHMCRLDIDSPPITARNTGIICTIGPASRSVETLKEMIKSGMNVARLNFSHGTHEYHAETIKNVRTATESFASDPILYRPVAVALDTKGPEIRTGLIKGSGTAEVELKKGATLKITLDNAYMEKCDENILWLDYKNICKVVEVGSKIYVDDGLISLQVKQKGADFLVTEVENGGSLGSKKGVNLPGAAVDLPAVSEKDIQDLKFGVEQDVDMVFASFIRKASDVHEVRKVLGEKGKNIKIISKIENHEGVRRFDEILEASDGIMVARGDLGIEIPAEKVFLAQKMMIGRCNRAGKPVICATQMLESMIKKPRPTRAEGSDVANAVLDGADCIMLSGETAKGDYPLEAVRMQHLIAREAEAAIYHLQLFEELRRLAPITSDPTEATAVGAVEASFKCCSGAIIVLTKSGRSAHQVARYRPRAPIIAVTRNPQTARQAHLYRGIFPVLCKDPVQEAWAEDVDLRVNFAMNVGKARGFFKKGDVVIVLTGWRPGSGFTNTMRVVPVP
Compound,IC50 [1] [µM],"AC50 (PKM2, human recombinant; 0.1 nM PKM2, 0.1 mM ADP, 0.5 mM PEP, 1 hour, room temperature, read-out: AC50 group) [µM]","Emax (PKM2, human recombinant; 1 h, maximum percent activity, luminescence without compound = 0% activity, read-out: Max activity Group) [%]",Deaths NTR ([2]; non-treatment-related deaths),Deaths TR ([2]; treatment-related deaths),"% TGD [3, 4] [%]","Regressions CR [3, 4]","Regressions PR [3, 4]","Regressions TFS [3, 4]","Median TTE ([3]; Gemcitabine 120 mg/kg ip q3d × 4, endpoint 1200 mm^3, 28-day study) [days]","MTV (n) Day 28 [3, 4]","MTV (n) Day 28 ([3]; Gemcitabine 120 mg/kg ip q3d × 4, listed as gemcitabine) [mm^3]","T − C ([3]; Gemcitabine 120 mg/kg ip q3d × 4, vs Group 1 vehicle) [days]","Median survival ([3]; Gemcitabine ip q3d × 4, 120 mg/kg (Column B = treated group))","Are the survival curves sig different? [3, 5]","Hazard Ratio [3, 5]",response of tumor model to therapy ([3]; standard 120 mg/kg gemcitabine therapy)
"COc1ccc(C2CC(c3ccc(NS(=O)(=O)c4ccc(F)cc4)cc3)=NN2C(C)=O)cc1 (racemic) [Compound 6A, N-(4-(1-acetyl-5-(4-methoxyphenyl)-4,5-dihydro-1H-pyrazol-3-yl)phenyl)-4-fluorobenzenesulfonamide]",< 40,≤ 1,130 to 200,–,–,–,–,–,–,–,–,–,–,–,–,–,–
"COc1ccc(C2CC(c3ccc(NS(=O)(=O)c4c(F)cccc4F)cc3)=NN2C(C)=O)cc1 (stereo not drawn) [Compound 61A, N-(4-(1-acetyl-5-(4-methoxyphenyl)-4,5-dihydro-1H-pyrazol-3-yl)phenyl)-2,6-difluorobenzenesulfonamide]",< 40,–,–,–,–,–,–,–,–,–,–,–,–,–,–,–,–
"Nc1ccn([C@@H]2O[C@H](CO)[C@@H](O)C2(F)F)c(=O)n1 [Gemcitabine, gemcitabine, reference compound]",–,–,–,0,0,50,0,0,0,28.0,600 (5) mm^3,600,9.3,Undefined,Yes,11.48,responded moderately well
